Laboratory results taken from patent US8614064B2, “Methods of diagnosing atherosclerosis by measuring ApoCI” (The Johns Hopkins University, priority 2003, dated 2013).

Key:
[1] = tested on: human aortic smooth muscles cells (ASMC); assay: DNA laddering assay; assay type: cell-based; settings: ApoCI or ApoCIII 2.5 μg/mL, TNF-α positive control
Method: FIGS. 1A-1C depict the effect of apolipoproteins on apoptosis in human aortic smooth muscles cells (ASMC). ASMC were grown on sterilized glass cover slips and incubated for 24 hours with media alone (control), ApoCIII (negative control, 2.5 μg/mL medium), ApoCI (2.5 μg/mL medium), ApoCI-enriched HDL (1 μg apoA-I/mL medium), or ApoCI-poor HDL (5 μg apoA-I/mL medium) for 24 hours. Cells were then fixed with ethanol-acetic acid (3:1 volume/volume) and washed 3 times with phosphate-buffered saline. The cells were then stained with DAPI reagent, mounted on a glass cover slide, and subjected to fluorescence microscopy. FIG. 1A: The nucleus of normal cells stains blue and the nucleus of apoptotic cells stains is fragmented white. FIG. 1B: 300 to 500 cells in each sample were counted and the percent of apoptotic cells was plotted. Values are mean±SD; **P<0.01, ***P<0.001. FIG. 1C: DNA ladder assay. Confluent cultures of ASMC were incubated with control medium alone, ApoCI (2.5 μg/mL medium), ApoCIII (negative control, 2.5 μg/mL medium), and TNF-α (positive control, 20 ng/mL medium). Genomic DNA was extracted and 10 μg DNA was subjected to agarose gel electrophoresis. The gels were calibrated with commercially available DNA standards. After electrophoresis, the gels were stained with ethidium bromide and then photographed.
Cells were treated with either TNF-α (30 ng/ml), ApoCI or ApoCIII (2.5 μg/ml) for 6 h. The cells were then washed twice with minimal essential medium and harvested with buffer (10 mM HEPES, pH 7.4. 5 mM EDTA, 0.25 mM EGTA, 50 mM NaF, 5 mM β-mercaptoethanol, 0.35 M sucrose, 0.1% Nonidet and protease inhibitors, 1 mM phenylmethylsulfonyl fluoride, 2 μg/ml leupeptin and 5 μg/ml pepstatin), and pelleted. Genomic DNA was prepared employing standard protocol. Genomic DNA was subjected to electrophoresis, stained with ethidium bromide and the gel was photographed. The gel was calibrated using DNA fragments of known molecular weight.

N-SMase = assay: Neutral sphingomyelinase assay in treated ASMC ([14C]sphingomyelin substrate); assay type: cell-based, human
Method: FIGS. 3A-3C depict the effects of ApoCI, ApoCIII, TNF-α, ApoCI-enriched HDL, and ApoCI-poor HDL on the activity of N-SMase in ASMC. Confluent cultures of ASMC were preincubated for 30 minutes with serum-free (control) medium, then ApoCI (2.5 μg/mL medium), ApoCIII (2.5 μg/mL medium), TNF-α (20 ng/mL medium) (FIG. 3A, top), or ApoCI-enriched HDL (1 μg apoAI/mL medium), or ApoCI-poor HDL (5 μg apoA-I/mL medium) (FIG. 3B, middle) were added individually to cells. The cells were then incubated and harvested at the indicated time points, and the activity was of N-SMase determined using [^14C]sphingomyelin as substrate. The N-SMase activity in control cells was 22 nmol/h per milligram cell protein, and this value was considered as 100% activity. In a separate experiment (FIG. 3C bottom), cells (0.5×10^5) were seeded in P60 Petri dishes and grown in DMEM supplemented with 10% fetal bovine serum for 5 days. After preincubation of cells for 30 minutes in serum-free medium, increasing amounts of ApoCI were added. After incubation for 10 minutes, cells were harvested, and N-SMase activity was measured.
After stimulation with ApoCI ApoCI-enriched HDL and ApoCI-poor HDL, the cells were washed with 5 ml of PBS and harvested. The pellets were stored frozen at −70° C. and resuspended in 0.5 ml of buffer (100 mM Tris-HCl pH 7.4, 0.1% Triton X-100, 1 mM EDTA and protease inhibitors). The cell suspension was sonicated 3 times (3-s bursts) using a probe sonicator and centrifuged at 500×g at 4° C. for 5 min. The supernatant was used as the enzyme source. 100 μg of protein was assayed for neutral sphingomyelinase activity in a buffer consisting of 50 mM Tris-HCl, pH 7.4, 0.1% Triton X-100, 0.1 mg of bovine serum albumin, 5 mM MgCl2 and […] of [^14C]sphingomyelin (specific activity 50 mCi/mmol, from American Radiolabled Chemicals (St. Louis, Mo.). The samples were incubated at 37° C. for 2 h and terminated with the addition of 1 ml of 10% trichloroacetic acid. The precipitate was pelleted (1000×g at 4° C. for 30 min) and 1 ml of the supernatant was extracted with 1 ml of anhydrous diethyl ether. About 0.5 ml of the aqueous phase was removed for liquid scintillation counting (Ghosh, N., and Chatterjee, S. (1998) J. Biol. Chem. 264, 12554-12561).

Substance	DNA laddering on agarose gel (FIG. 1C) [1]	pattern of N-SMase stimulation with time (N-SMase; ApoCIII 2.5 μg/mL, ApoCI-poor HDL 5 μg apoA-I/mL, time course to 60 min)	increase in the activity of N-SMase at 5 minutes (N-SMase; 5 min, ApoCI 2.5 μg/mL, TNF-α 20 ng/mL, ApoCI-enriched HDL 1 μg apoA-I/mL, control 22 nmol/h per mg protein = 100%) [fold]	maximum increase in N-SMase activity, concentration dependence (FIG. 3C) (N-SMase; ApoCI 2.5 μg/mL medium, 10 min incubation) [fold]
ApoCIII: purified human ApoCIII purchased from Academy Bio-Medical Company, used as negative control	did not exhibit significant DNA laddering	Such a pattern was not seen	–	–
Apolipoprotein C-I (TPDVSSALDKLKEFGNTLEDKARELISRIKQSELSAKMREWFSETFQKVKEKLKIDS; UniProt P02654 27-83, looked up) [ApoCI, 6.6-kDa single-chain plasma protein of 57 amino acids; purified human ApoCI purchased from Academy Bio-Medical Company]	exhibited DNA laddering	–	~2	1.5
